The NIST ThermoML archive (doi:10.1016/j.jct.2019.01.007)

Conditions: Liquid

CCCCCCCCCCCCCC(=O)OC [methyl tetradecanoate]
Conditions	vapor or sublimation pressure [kPa]
302.71 K	0.0001132
305.3 K	0.0001501
306.14 K	0.0001656
307.76 K	0.0001949
308.58 K	0.0002142
310.23 K	0.0002542
311.21 K	0.0002813
312.71 K	0.0003264
313.7 K	0.0003625
315.17 K	0.0004199
316.16 K	0.0004655
317.65 K	0.0005357
318.63 K	0.0005914
320.12 K	0.0006862
321.26 K	0.0007623
322.58 K	0.0008688
323.72 K	0.0009621
325.2 K	0.001105
326.19 K	0.001216
327.67 K	0.001391
328.66 K	0.001519
330.13 K	0.001743
331.13 K	0.001907
332.6 K	0.002171
333.6 K	0.002378
335.34 K	0.002751
336.07 K	0.002936
337.83 K	0.00341
338.55 K	0.003626
340.31 K	0.004207
341.01 K	0.00447
342.8 K	0.005171
343.48 K	0.005466
345.28 K	0.006333
345.96 K	0.006695
347.76 K	0.007722
348.43 K	0.008134
350.25 K	0.009383
350.91 K	0.009867
352.73 K	0.01136
355.48 K	0.01397
357.96 K	0.0168
360.44 K	0.02019
362.92 K	0.02417
365.4 K	0.02884
367.85 K	0.0341
370.34 K	0.0405
372.83 K	0.04791
375.44 K	0.05668
377.92 K	0.06667
380.41 K	0.0782
382.89 K	0.09144
385.37 K	0.1068
387.86 K	0.1243
390.36 K	0.1443
393.01 K	0.1685
395.5 K	0.1947
397.98 K	0.2245
400.45 K	0.2582
402.96 K	0.297
405.45 K	0.3402
407.93 K	0.3881
410.41 K	0.4428
412.89 K	0.5045
415.45 K	0.5764
417.93 K	0.6527
420.4 K	0.7365
422.88 K	0.8323

Transpiration method
Conditions	vapor or sublimation pressure [kPa]
303.05 K	0.000126
304.65 K	0.000152
306.05 K	0.000172
309.15 K	0.000236
311.15 K	0.00032
313.15 K	0.00039
316.25 K	0.000485
319.25 K	0.000631
322.05 K	0.000891
325.05 K	0.00116
328.25 K	0.00151
331.05 K	0.0019
333.05 K	0.00252
333.15 K	0.00233
334.95 K	0.00275
338.05 K	0.00359
340.05 K	0.00416
343.05 K	0.00536
344.95 K	0.00629
348.05 K	0.00758
350.15 K	0.00963
353.05 K	0.0111
355.15 K	0.0133
358.05 K	0.0168
360.05 K	0.02
363.05 K	0.0242

CCCCCCCCCCCCC(=O)OC [methyl tridecanoate]
Transpiration method
Conditions	vapor or sublimation pressure [kPa]
298.15 K	0.000239
300.15 K	0.000302
303.25 K	0.00041
305.15 K	0.000485
308.15 K	0.000697
310.15 K	0.000799
313.35 K	0.00112
315.05 K	0.0013
318.25 K	0.00174
320.15 K	0.00203
323.25 K	0.00258
325.05 K	0.00314
328.15 K	0.00415
330.15 K	0.00492
333.15 K	0.00626
335.15 K	0.00739
338.15 K	0.00934
340.15 K	0.0111
343.05 K	0.0131
345.15 K	0.0163
348.15 K	0.0197
350.15 K	0.023
353.15 K	0.0286
355.15 K	0.0338

CCCCCCCCCCC(=O)OC [methyl undecanoate]
Conditions	vapor or sublimation pressure [kPa]
305.25 K	0.003577
307.81 K	0.004504
310.15 K	0.005571
312.67 K	0.006957
315.06 K	0.008553
317.52 K	0.01055
319.94 K	0.01283
322.42 K	0.01574
324.82 K	0.019
327.29 K	0.02304
329.69 K	0.02778
332.16 K	0.03345
334.54 K	0.03987
337.03 K	0.04783
339.43 K	0.05689
341.91 K	0.06735
